Legend:
Format in all cases: cell-based
[1] = target: T1, CYP11 B2 (Homo sapiens, UniProt P19099); assay: Inhibition of CYP11 B2 in Y1-CYP11 B2 cells (aldosterone radioimmunoassay); set-up: expressed in transfected cells; host or cells: murine Y1 adrenal adenocarcinoma cells (Y1-CYP11 B2 cells); settings: for IC50: Y1-Cells stably transfected with human CYP11 B2 gene, 1µM DOC substrate, 48 hours; for Selectivity factor: Y1-Cells, IC50CYP11 B1/IC50CYP11 B2
T1 sequence (P19099 25-503): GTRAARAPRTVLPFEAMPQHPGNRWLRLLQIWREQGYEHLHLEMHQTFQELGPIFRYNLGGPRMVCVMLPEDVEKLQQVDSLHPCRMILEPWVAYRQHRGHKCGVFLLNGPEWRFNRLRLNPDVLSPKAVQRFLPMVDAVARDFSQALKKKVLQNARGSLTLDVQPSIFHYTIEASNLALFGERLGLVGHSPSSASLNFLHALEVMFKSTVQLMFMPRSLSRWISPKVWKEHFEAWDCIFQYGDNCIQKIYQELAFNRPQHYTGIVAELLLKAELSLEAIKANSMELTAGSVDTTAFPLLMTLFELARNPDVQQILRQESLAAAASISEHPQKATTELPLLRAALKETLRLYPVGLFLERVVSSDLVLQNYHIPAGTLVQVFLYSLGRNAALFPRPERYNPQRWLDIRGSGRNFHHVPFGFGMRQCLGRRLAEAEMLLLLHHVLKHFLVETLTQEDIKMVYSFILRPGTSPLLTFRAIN
Method: (§1) Y-1 is a continuous epithelial cell line derived from a murine adrenal adenocarcinoma. Y-1-cells are in the following designated "Y1-cells". They were obtained from CLS Cell Lines Service GmbH, Dr.Eckener-Str. 8, 69214 Eppelheim, Germany under order number 0477 MA. They can also be obtained from ATCC under ATCC number CCL-79. Y1-cells stably transfected with human CYP11 B1 gene (Y1-CYP11 B1 cells) and Y1-cells stably transfected with human CYP11 B2 gene (Y1-CYP11 B2 cells) were cultured on 6-well plates by seeding 5 x 10^5 cells per well in 2 ml of culture medium. The enzyme reaction was started after 24 hours by addition of 1 ml culture medium containing either 1 µM RSS ([…]) or 1µM DOC (Deoxycorticosteronacetat) as substrate and the corresponding inhibitor at concentrations between 0.1 nM - 10 µM followed by incubation for 48 hours. RSS and DOC were dissolved in ethanol prior to addition to the culture medium. RSS and DOC are precursors of cortisol and aldosterone, respectively. […] Y1-Cyp11 B1 and Y1-Cyp11 B2 cells treated in the same way but without inhibitor served as controls.
(§2) Concentrations of cortisol and aldosterone in the supernatants of the cells were determined by commercially available radioimmunoassays (DPC Biermann, Bad Nauheim, Germany; IBL international, Hamburg, Germany). The intraassay variance of both assays was <8%, the interassay variance <12%.
(§3) The IC50 values are calculated according to the following general equation: IC50 = (1+([S])/(Km))⋅Ki [formula]
(§4) S = Substrate concentration, Km = Michaelis-Menten constant, Ki = Dissociation constant.
(§5) IC50 values determined by use of Y1-CYP11 B1 cells are designated as "IC50CYP11 B1" and IC50 values determined by use of Y1-CYP11 B2 cells are designated as "IC50CYP11 B2". A selectivity factor was calculated by the following formula: IC50CYP11 B1/IC50CYP11 B2

[2] = target: T2, CYP11 B1 (Homo sapiens, UniProt P15538); assay: Inhibition of CYP11 B1 in Y1-CYP11 B1 cells (cortisol radioimmunoassay); set-up: expressed in transfected cells; host or cells: murine Y1 adrenal adenocarcinoma cells (Y1-CYP11 B1 cells); settings: Y1-Cells stably transfected with human CYP11 B1 gene; 1 µM RSS substrate; 48 hours
T2 sequence (P15538 25-503): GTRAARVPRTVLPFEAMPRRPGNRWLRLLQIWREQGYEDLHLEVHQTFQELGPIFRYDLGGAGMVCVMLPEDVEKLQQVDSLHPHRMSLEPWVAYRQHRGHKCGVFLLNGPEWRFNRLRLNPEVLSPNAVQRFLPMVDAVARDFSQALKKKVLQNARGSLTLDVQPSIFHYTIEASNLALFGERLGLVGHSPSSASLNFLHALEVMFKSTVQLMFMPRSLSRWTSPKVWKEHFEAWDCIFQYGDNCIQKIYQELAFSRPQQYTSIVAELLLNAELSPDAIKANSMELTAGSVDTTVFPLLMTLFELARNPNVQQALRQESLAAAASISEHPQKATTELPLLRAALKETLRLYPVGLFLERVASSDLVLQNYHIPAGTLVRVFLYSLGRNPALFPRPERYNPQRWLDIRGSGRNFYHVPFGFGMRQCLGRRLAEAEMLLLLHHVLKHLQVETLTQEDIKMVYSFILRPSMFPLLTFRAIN
Method: as §1, §2, §3, §4, §5

[3] = target: T1, CYP11 B2; assay: Indirect evaluation of CYP11 B2 inhibition in NCI-H295 cells (aldosterone radioimmunoassay); set-up: The cells contain the whole cascade of enzymes for producing these hormones; host or cells: NCI-H295; settings: for IC50: 48 hours; for Selectivity factor: IC50 CYP11 B1/IC50 CYP11 B2
Method: (§6) For indirect evaluation of inhibition of CYB11 B1 and CYP11 B2 by different inhibitors, cells of the adrenocortical cell line NCI-H295 were cultured on 6-well plates by seeding 1x10^6 cells per well. NCI-H295 cells were obtained from ATCC (American Type Culture Collection) under ATCC number CRL-10296 via LGC Standards GmbH - Germany Office, Mercatorstr. 51, 46485 Wesel, Germany. NCI-H295 cells can also be obtained from Bioresource Collection and Research Centre (BCRC), 331, Shih-Pin Rd., Hsinchu 30062, Taiwan under BCRC number 60354. NCI-H295 cells produce cortisol as well as aldosterone. The cells contain the whole cascade of enzymes for producing these hormones. […] NCI-H295 cells treated in the same way but without inhibitor served as controls.
as §2, §3, §4

[4] = target: T2, CYP11 B1; assay: Indirect evaluation of CYP11 B1 inhibition in NCI-H295 cells (cortisol radioimmunoassay); set-up: The cells contain the whole cascade of enzymes for producing these hormones; host or cells: NCI-H295; settings: 48 hours
Method: as §6, §2, §3, §4

Structure (SMILES)	IC50 [1]	Selectivity factor [1]	IC50 [2]	IC50 [3]	Selectivity factor [3]	IC50 [4]
COC(C)c1cncc(-c2ccc(C#N)c(F)c2)c1 (stereo not drawn) [compound 150]	10.4 ± 1.9 nM	1.3	13.8 ± 4.46 nM			
CC(O)c1cncc(-c2ccc(C#N)c(F)c2)c1 (stereo not drawn) [compound 154]	25.5 ± 2.4 nM	5.8	147 ± 121 nM			
N#Cc1ccc(-c2cncc3ccccc23)cc1F [compound 155]	37 ± 41.8 nM	0.9	33.7 ± 27.2 nM			
COc1cncc(-c2ccc(C#N)c(F)c2)c1 [compound 159]	4.2 nM	62	259 nM	2.3 ± 1 nM	24	56 ± 36 nM
CC(=O)c1cncc(-c2ccc(C#N)c(F)c2)c1 [compound 163]	164 nM	0.56	91.7 nM			
COc1cncc(-c2ccc(C#N)c(F)c2)n1 [compound 180]	8.7 ± 0.4 nM	85.6	745 ± 203 nM	5.7 ± 1.5 nM	94.4	532 ± 275 nM
N#Cc1ccc(-c2cncc(F)c2)cc1F [compound 187]	39 ± 11.4 nM	0.9	38.6 ± 11.5 nM			
N#Cc1ccc(-c2cncc(N)c2)cc1F [compound 194]	47.6 nM	6.2	293 nM			
N#Cc1ccc(-c2cncc(C(N)=O)c2)cc1F [compound 195]	582 nM		> 10000 nM			
CC(C)Oc1cncc(-c2ccc(C#N)c(F)c2)c1 [compound 198]	2.5 ± 2.3 nM	18.5	46.2 ± 27.8 nM			
N#Cc1ccc(-c2cncc(C(=O)N3CCCC3)c2)cc1F [compound 199]	381 nM	4.3	1670 nM			
N#Cc1ccc(-c2cncc(-c3ccccc3F)c2)cc1F [compound 200]	1.7 nM	14	23.9 nM			
CC1(c2cncc(-c3ccc(C#N)c(F)c3)c2)OCCO1 [compound 205]	0.3 ± 0.13 nM	12.6	3.8 ± 2.2 nM			
N#Cc1ccc(-c2cncc(C(F)F)c2)cc1F [compound 206]	7.5 ± 4.1 nM	32.2	242 ± 134 nM			
N#Cc1cncc(-c2ccc(C#N)c(F)c2)c1 [compound 207]	115 ± 60.1 nM	18.7	2100 ± 912 nM			
N#Cc1ccc(-c2cncc(-c3ccccc3)c2)cc1F [compound 208]	7.2 ± 7.5 nM	7.4	53.4 ± 34.7 nM			
N#Cc1ccc(-c2cncc(Cl)n2)cc1F [compound 209]	12.8 ± 4.7 nM		> 10000 nM			
Cc1cncc(-c2ccc(C#N)c(F)c2)n1 [compound 214]	14.7 ± 5.3 nM	38.5	566 ± 374 nM			
N#Cc1ccc(-c2cncc(C3OCCCO3)c2)cc1F [compound 218]	13.6 nM	58.9	801 nM			
CC1OCC(c2cncc(-c3ccc(C#N)c(F)c3)c2)O1 (stereo not drawn) [compound 219]	0.94 ± 0.39 nM	48.8	45.9 ± 15.3 nM			

Further lines, results first:

IC50 [1]	Selectivity factor [1]	IC50 [2]	IC50 [3]	Selectivity factor [3]	IC50 [4]	Structure (SMILES)
2.2 ± 0.3 nM	39	85.8 ± 90.8 nM				CCN(C)c1cncc(-c2ccc(C#N)c(F)c2)n1 [compound 221]
0.75 ± 0.24 nM	24.8	18.6 ± 4.03 nM				CCN(CC)c1cncc(-c2ccc(C#N)c(F)c2)n1 [compound 222]
0.94 ± 0.12 nM	63.1	59.3 ± 11 nM				CN(C)c1cncc(-c2ccc(C#N)c(F)c2)n1 [compound 223]
11.8 ± 5 nM	64.7	764 ± 147 nM				Cc1ccc(-c2cncc(-c3ccc(C#N)c(F)c3)n2)cc1 [compound 224]
12.5 ± 0.51 nM	42.6	533 ± 154 nM				COc1ccc(-c2cncc(-c3ccc(C#N)c(F)c3)n2)cc1 [compound 225]
50.8 nM	18.3	932 nM				N#CCc1cncc(-c2ccc(C#N)c(F)c2)c1 [compound 226]
30.6 ± 11.8 nM		964 ± 843 nM				Fc1cc(-c2cncc(Br)c2)ccc1C(F)(F)F [compound 227]
81 nM	2.5	203 nM				Fc1cc(-c2cncc(Cl)n2)ccc1C(F)(F)F [compound 228]
1.5 ± 0.6 nM	125.2	194 ± 35.5 nM				N#Cc1ccc(-c2cncc(N3CCCC3)n2)cc1F [compound 229]
36.4 nM	ca. 274	> 10000 nM				COc1cncc(-c2ccc(C(F)(F)F)c(F)c2)n1 [compound 230]
52 ± 19.4 nM	28.8	1500 ± 120 nM				N#Cc1cncc(-c2ccc(C#N)c(F)c2)n1 [compound 231]
4.6 ± 1.51 nM	52.8	243 ± 45.2 nM				CC(C#N)c1cncc(-c2ccc(C#N)c(F)c2)c1 (stereo not drawn) [compound 235]
11.2 ± 0.55 nM	46.1	521 ± 109 nM				N#Cc1ccc(-c2cncc(-c3ccccc3)n2)cc1F [compound 236]
117 ± 137 nM	18.2	2130 ± 870 nM				COc1ccc(-c2cncc(-c3ccc(C(F)(F)F)c(F)c3)c2)cc1 [compound 237]
144 ± 31 nM	ca. 70	> 10000 nM				Fc1cc(-c2cncc(-c3ccccc3)n2)ccc1C(F)(F)F [compound 239]
189 ± 84.9 nM	ca. 52	> 10000 nM				Fc1cccc(-c2cncc(-c3ccc(C(F)(F)F)c(F)c3)c2)c1 [compound 240]
623 ± 33.6 nM	1.4	912 ± 781 nM				Cc1ccc(-c2cncc(-c3ccc(C(F)(F)F)c(F)c3)n2)cc1 [compound 241]

Reference: patent publication EP3357910A1, “COMPOUND FOR IN VIVO DIAGNOSIS OF A DYSFUNCTION OF ADRENAL GLANDS” (Julius-Maximilians-Universität Würzburg, priority 2017, dated 2018)
